The values that follow come from ChEMBL document CHEMBL4002640, “Discovery of MK-1832, a Kv1.5 inhibitor with improved selectivity and pharmacokinetics” (Bioorg Med Chem Lett, 2017).

Molecules are shown by their SMILES.

The target in series [1] is Potassium voltage-gated channel subfamily A member 5 (Homo sapiens, UniProt P22460). Nature of the series: Inhibition of Kv1.5 (unknown origin).
In series [2] the target is KCNQ1/KCNE1 (IKs) (Homo sapiens, UniProt P15382+P51787). Description: Inhibition of human KCNQ1/KCNE1 expressed in HEK293 cells assessed as reduction in slowly activating delayed rectifier cardiac potassium current at 10 uM by patch clamp electrophysiology method. It is filed as cell-based. As to conditions: HEK293 cells expressing human KCNQ1/KCNE1.
Sequence of KCNQ1/KCNE1 (IKs) (P51787 whole entry): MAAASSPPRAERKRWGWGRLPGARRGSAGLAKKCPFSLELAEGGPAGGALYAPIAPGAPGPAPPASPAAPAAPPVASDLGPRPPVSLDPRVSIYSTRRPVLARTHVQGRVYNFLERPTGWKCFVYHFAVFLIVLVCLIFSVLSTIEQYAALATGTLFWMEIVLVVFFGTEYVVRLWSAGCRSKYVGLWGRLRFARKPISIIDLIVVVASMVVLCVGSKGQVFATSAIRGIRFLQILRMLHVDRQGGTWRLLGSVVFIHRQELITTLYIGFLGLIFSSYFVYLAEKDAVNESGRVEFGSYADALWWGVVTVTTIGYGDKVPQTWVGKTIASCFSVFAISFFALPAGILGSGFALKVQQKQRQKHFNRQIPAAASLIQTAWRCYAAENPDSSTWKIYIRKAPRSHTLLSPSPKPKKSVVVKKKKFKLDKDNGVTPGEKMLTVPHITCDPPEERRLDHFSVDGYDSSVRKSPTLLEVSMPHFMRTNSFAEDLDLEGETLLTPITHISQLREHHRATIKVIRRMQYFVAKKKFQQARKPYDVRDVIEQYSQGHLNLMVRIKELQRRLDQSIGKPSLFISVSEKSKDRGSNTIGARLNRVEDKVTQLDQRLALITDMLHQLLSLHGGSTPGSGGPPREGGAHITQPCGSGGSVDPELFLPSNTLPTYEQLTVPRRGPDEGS
For series [3], the target named is Voltage-gated inwardly rectifying potassium channel KCNH2 (Homo sapiens, UniProt Q12809). Nature of the series: Displacement of [3H]-MK499 from human ERG IKr channel expressed in HEK293 cell membranes.
Sequence of Voltage-gated inwardly rectifying potassium channel KCNH2 (Q12809 whole entry): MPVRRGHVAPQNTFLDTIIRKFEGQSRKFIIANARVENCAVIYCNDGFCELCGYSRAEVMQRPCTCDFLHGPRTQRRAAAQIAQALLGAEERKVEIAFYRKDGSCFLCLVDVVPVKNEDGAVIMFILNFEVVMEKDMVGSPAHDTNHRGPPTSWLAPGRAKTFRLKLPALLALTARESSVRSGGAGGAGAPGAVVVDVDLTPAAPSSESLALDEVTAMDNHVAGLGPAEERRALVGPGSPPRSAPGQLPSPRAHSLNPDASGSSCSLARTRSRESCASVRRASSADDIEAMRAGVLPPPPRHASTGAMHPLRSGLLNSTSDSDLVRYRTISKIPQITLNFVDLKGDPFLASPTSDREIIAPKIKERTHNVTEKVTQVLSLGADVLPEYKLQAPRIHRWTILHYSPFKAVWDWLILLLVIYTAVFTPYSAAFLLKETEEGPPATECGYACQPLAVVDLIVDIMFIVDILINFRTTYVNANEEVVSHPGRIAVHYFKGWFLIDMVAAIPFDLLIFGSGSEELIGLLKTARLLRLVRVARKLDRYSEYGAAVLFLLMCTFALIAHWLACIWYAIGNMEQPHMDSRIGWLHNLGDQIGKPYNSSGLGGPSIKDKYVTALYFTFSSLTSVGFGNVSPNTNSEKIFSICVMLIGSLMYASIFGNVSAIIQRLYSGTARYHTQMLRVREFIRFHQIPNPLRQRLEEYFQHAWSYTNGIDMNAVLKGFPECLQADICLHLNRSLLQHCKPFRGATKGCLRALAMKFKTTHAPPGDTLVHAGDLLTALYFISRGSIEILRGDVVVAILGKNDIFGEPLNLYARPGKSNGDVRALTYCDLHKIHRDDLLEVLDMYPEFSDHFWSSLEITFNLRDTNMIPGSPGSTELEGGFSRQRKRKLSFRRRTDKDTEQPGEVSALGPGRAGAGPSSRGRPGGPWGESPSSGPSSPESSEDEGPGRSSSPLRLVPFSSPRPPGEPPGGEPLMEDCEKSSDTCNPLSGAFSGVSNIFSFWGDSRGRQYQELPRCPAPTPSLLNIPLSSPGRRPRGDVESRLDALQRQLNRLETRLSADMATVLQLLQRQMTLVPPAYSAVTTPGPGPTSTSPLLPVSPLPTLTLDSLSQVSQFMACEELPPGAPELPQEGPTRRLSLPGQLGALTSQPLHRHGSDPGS
The species named for series [4] is Homo sapiens. Description: Substrate activity at human P-gp assessed as efflux ratio.

Sequence of Potassium voltage-gated channel subfamily A member 5 (P22460 whole entry): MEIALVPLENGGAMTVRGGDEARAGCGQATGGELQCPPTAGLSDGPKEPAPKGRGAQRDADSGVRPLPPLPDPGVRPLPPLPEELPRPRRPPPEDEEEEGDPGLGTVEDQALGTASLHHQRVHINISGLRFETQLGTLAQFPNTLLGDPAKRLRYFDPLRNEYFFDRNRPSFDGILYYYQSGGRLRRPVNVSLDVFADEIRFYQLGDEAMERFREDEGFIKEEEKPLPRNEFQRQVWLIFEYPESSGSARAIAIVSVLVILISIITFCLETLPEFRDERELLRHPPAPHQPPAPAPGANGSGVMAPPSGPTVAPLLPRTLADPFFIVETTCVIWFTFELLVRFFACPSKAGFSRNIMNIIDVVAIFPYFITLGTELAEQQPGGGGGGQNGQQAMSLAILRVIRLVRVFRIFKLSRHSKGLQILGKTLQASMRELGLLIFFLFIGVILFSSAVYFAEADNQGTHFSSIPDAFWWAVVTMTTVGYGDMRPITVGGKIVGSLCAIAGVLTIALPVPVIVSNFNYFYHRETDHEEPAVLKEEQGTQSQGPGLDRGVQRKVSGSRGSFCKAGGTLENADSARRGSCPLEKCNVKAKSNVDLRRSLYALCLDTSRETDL

`COc1cccc(-c2ncccc2CC(c2cccnc2)c2cccnc2)c1` registered an IC50 in series [1] of 41 nM. The inhibition at 10 µM in series [2] is 15%.

The molecule `Cc1cc(F)ccc1-c1ccccc1C(C#N)C(c1cccnc1)c1cccnc1` (configuration not stated) displayed an IC50 in series [1] of 137 nM. The inhibition at 10 µM in series [2] amounted to 9.2%.

Regarding `Clc1ccccc1-c1ncccc1CC(c1cccnc1)c1cccnc1Cl` (configuration not stated), the IC50 in series [1] worked out at 26 nM. The inhibition at 10 µM in series [2] is 80%.

Turning to `Nc1cccc(C(Cc2cccnc2-c2cccc(C(F)(F)F)c2)c2cccnc2)n1` (configuration not stated), the IC50 in series [1] was found to be 56 nM. The inhibition at 10 µM in series [2] amounted to 42%.

In the case of `CN(C)C(=O)c1cccc(-c2ncccc2CC(c2ccnc(N)n2)c2cccnc2F)c1` (racemic), the IC50 is 161 nM in series [1] and > 30 µM in series [3]. In series [2], the inhibition at 10 µM came out at 61%.

For the molecule `c1ccc(-c2ccccc2CC(c2cccnc2)c2cccnc2)cc1`, the IC50 in series [1] was 1390 nM; in series [3], 7.62 µM.

On to `FC(F)(F)Oc1cccc(-c2ncccc2CC(c2cccnc2)c2cccnc2)c1`, for which the IC50 was 33 nM in series [1] and 12.7 µM in series [3]. Besides, in series [2], the inhibition at 10 µM was found to be 67%.

In turn, `OC(c1cccnc1-c1cccc(Cl)c1)C(c1cccnc1)c1ncco1` (mixture of isomers) gave an IC50 in series [1] of 276 nM. In series [2], the inhibition at 10 µM stood at 16%.

`N#Cc1cccc(-c2cccc(Cl)c2CC(c2cccnc2)c2cccnc2)c1`: the IC50 in series [1] was 2860 nM; in series [3] it was 2.56 µM.

In the case of `Fc1ccc(CC(c2cccnc2)c2cccnc2)c(-c2cccc(C(F)(F)F)c2)c1`, the IC50 was 1280 nM in series [1] and 2.23 µM in series [3].

On to `c1cncc(-c2ccccc2CC(c2cccnc2)c2cccnc2)c1`, for which it took 64 nM to reach half-maximal inhibition in series [1] (IC50). Besides, in series [2], the inhibition at 10 µM stood at 22%.

The molecule `CN(C)C(=O)c1cccc(-c2ccccc2CC(c2cccnc2)c2cccnc2)c1` yielded an IC50 in series [1] of 64 nM. Also, the inhibition at 10 µM in series [2] came out at 26%.

With `CS(=O)(=O)Nc1cccc(-c2cc(F)ccc2CC(c2cccnc2)c2cccnc2)c1`, in series [1], the IC50 was determined as 579 nM. Further, the inhibition at 10 µM in series [2] stood at 42%.

For `Fc1ccc(CC(c2cccnc2)c2cccnc2)c(C2CC2)c1`, the IC50 in series [1] is > 10000 nM.

As to `c1cncc(C(Cc2ccccc2-c2cncc3ccccc23)c2cccnc2)c1`, the IC50 in series [1] worked out at 133 nM; in series [3] it was 12 µM. Besides, the inhibition at 10 µM in series [2] worked out at 77%.

With `Clc1ccccc1-c1ncccc1CC(c1cccnc1)c1cccnc1`, the IC50 was 23 nM in series [1] and > 30 µM in series [3]. For the same molecule, in series [2], the inhibition at 10 µM was 24%.

In turn, `OC(c1cccnc1-c1cccc(Cl)c1Cl)C(c1cccnc1)c1cccnc1` (racemic) came in with a 50% inhibitory concentration (IC50) in series [1] of 110 nM. The Ratio in series [4] came to 17. Moreover, in series [2], the inhibition at 10 µM was -3.3%.

Consider `OC(c1cccnc1-c1cccc(Cl)c1)C(c1cccnc1)c1cccnc1` (racemic), for which the half-maximal inhibitory concentration (IC50) in series [1] is 283 nM; in series [3], > 30 µM. The inhibition at 10 µM in series [2] was 4.1%.

As to `c1cncc(C(Cc2ccccc2-c2ccncc2)c2cccnc2)c1`, the IC50 in series [1] turned out to be 444 nM; in series [3], 22.1 µM.

`FC(F)(F)c1cccc(-c2ncccc2CC(c2cccnc2)c2cccnc2)c1`: the values for the IC50 in series [1] and in series [3] were 84 nM and > 30 µM, respectively. In addition, in series [2], the inhibition at 10 µM was 23%.

As for `CN(c1cccnc1)c1ncccc1CC(c1cccnc1)c1cccnc1`, the values for the IC50 in series [1] and in series [3] were 90 nM and > 30 µM, respectively. Also, the inhibition at 10 µM in series [2] turned out to be 5%.

As to `Nc1cccc(C(Cc2cccnc2-c2cc(Cl)cc(Cl)c2)c2cccnc2)n1` (configuration not stated), the IC50 in series [1] worked out at 62 nM; in series [3], 10.2 µM. Moreover, the inhibition at 10 µM in series [2] was determined as 57%.

For the molecule `Clc1cccc(-c2ncccc2CC(c2cccnc2)c2cccnc2)c1`, the IC50 in series [1] was 30 nM; in series [3] it was > 30 µM. In addition, the inhibition at 10 µM in series [2] was determined as 36%.

Turning to `Fc1ccc(CC(c2cccnc2)c2cccnc2)c(-c2cn[nH]c2)c1`, the IC50 in series [1] was > 10000 nM.

In turn, `CS(=O)(=O)Nc1cccc(-c2cc(F)ccc2CC(c2cccnc2)c2cccnc2)n1` registered an IC50 in series [1] of 1590 nM.
